Measurements published in US4894458A, “Quinolonecarboxylic acid derivatives and their preparation” (Kyorin Pharmaceutical Co., Ltd., priority 1986, dated 1990).
≈ marks a conversion by molar mass, not a printed value. Like-named read-outs stand apart in the source and are kept apart here.

Assays:
Type in all cases: cell-based
[1] = test system: Enterobacter cloacae IID 977; test: In vitro antibacterial activity (aerobic bacteria), MIC; settings: IID977
[2] = test system: Salmonella enteritidis IID 604; test: as above; settings: Salmonella enterica
[3] = test system: Bacillus subtilis PCI 219; test: as above; settings: PCI219
[4] = test system: Escherichia coli NIHJ JC-2; test: as above; settings: NIHJJC2, aerobic, Gram -, 10^6 cells/ml
B. fragilis 0558 = test: In vitro antibacterial activity (anaerobic bacteria), MIC; settings: Bacteroides fragilis
P. maltophilia GIFU 2491 = test: In vitro antibacterial activity (aerobic bacteria), MIC; settings: Stenotrophomonas maltophilia, GIFU2491
[5] = test system: Citrobacter freundii IID 976; test: as above; settings: Citrobacter freundii
P. aeruginosa IFO 12689 = test: as above; settings: Pseudomonas aeruginosa, IFO12689
Pst micros UPI 5464-1 = test: microbe, parasite or virus in culture
[6] = test system: Alcaligenes faecalis 0114002; test: In vitro antibacterial activity (aerobic bacteria), MIC; settings: Alcaligenes faecalis, 0114002, aerobic; Gram -; 10^6 cells/ml
[7] = test system: Eubacterium lentum GAI 5242; test: In vitro antibacterial activity (anaerobic bacteria), MIC; settings: Eggerthella lenta, GAI5242
[8] = test system: Clostridium difficile I-E; test: as above; settings: Clostridioides difficile
B. fragilis 25285 = test: as above; settings: Bacteroides fragilis
[9] = test system: Veillonella parvula KYA 10790; test: as above; settings: KYA10790
[10] = test system: Bacteroides fragilis GM 7000; test: as above; settings: GM7000
[11] = test system: Propionibacterium acens 11828; test: as above
P. cepacia GIFU 518 = test: In vitro antibacterial activity (aerobic bacteria), MIC; settings: Burkholderia cepacia, GIFU518
C. ramosum = test: In vitro antibacterial activity (anaerobic bacteria), MIC; settings: Thomasclavelia ramosa, anaerobic, Gram +, 10^6 cells/ml
C. perfringens KYA 13123 = test: microbe, parasite or virus in culture; settings: Clostridium perfringens, KYA13123
P. aeruginosa IID 1210 = test: In vitro antibacterial activity (aerobic bacteria), MIC; settings: Pseudomonas aeruginosa, IID1210, aerobic; Gram -; 10^6 cells/ml
[12] = test system: Yersinia enterocolitica IID 981; test: microbe, parasite or virus in culture; settings: IID981
[13] = test system: Peptococcus magnus KY 017; test: In vitro antibacterial activity (anaerobic bacteria), MIC; settings: Finegoldia magna, KY017, Gram +, 10^6 cells/ml, read-out: MIC
Procedure: (§1) Minimal inhibitory concentrations (MICs) were determined in accordance with the method recommended by Japan Society of Chemotherapy.

[14] = test system: Peptostreptococcus anaerobius KYA 27337; test: as above; settings: KYA27337
B. distasonis 8503 = test: as above; settings: Parabacteroides distasonis, Gram -, 10^6 cells/ml
[15] = test system: B. thetaiotaomicron (0661); test: as above; settings: Bacteroides thetaiotaomicron
[16] = test system: Klebsiella pneumoniae KY(GN)6445; test: In vitro antibacterial activity (aerobic bacteria), MIC
F. varium KYA 8501 = test: In vitro antibacterial activity (anaerobic bacteria), MIC; settings: Fusobacterium varium, KYA8501
K. pneumoniae 1-220S = test: In vitro antibacterial activity (aerobic bacteria), MIC; settings: Klebsiella pneumoniae, 1220S, Gram -, 10^6 cells/ml
Procedure: as §1

Shigella sonnei IID 969 = test: as above; settings: IID969, Gram -, 10^6 cells/ml
Procedure: as §1

[17] = test system: Proteus vulgaris IFO 3167; test: as above; settings: IFO3167, Gram -, 10^6 cells/ml
Procedure: as §1

[18] = test system: Acinetobacter anitratus IID 876; test: as above; settings: Acinetobacter calcoaceticus, IID876, Gram -, 10^6 cells/ml, read-out: MIC
Procedure: as §1

E. coli ATCC 10536 = test: as above; settings: Escherichia coli, ATCC10536, Gram -, 10^6 cells/ml
Procedure: as §1

P. mirabilis IID 994 = test: as above; settings: Proteus mirabilis, IID994, Gram -, 10^6 cells/ml
Procedure: as §1

[19] = test system: Morganella morganii IID 602; test: as above; settings: Morganella morganii, IID602, Gram -, 10^6 cells/ml, read-out: MIC
Procedure: as §1

[20] = test system: S. aureus IID 670 (Terajima); test: as above; settings: Staphylococcus aureus, IID670, Gram +, 10^6 cells/ml
Procedure: as §1

[21] = test system: Serratia marcescens IID 618; test: as above; settings: IID618, Gram -, 10^6 cells/ml
Procedure: as §1

[22] = test system: Pseudomonas aeruginosa V-1; test: as above; settings: Pseudomonas aeruginosa, V1, aerobic; Gram -; 10^6 cells/ml; read-out: MIC
Procedure: as §1

S. epidermidis IID 866 = test: as above; settings: Staphylococcus epidermidis, IID866, Gram +, 10^6 cells/ml
Procedure: as §1

[23] = test system: Staphylococcus aureus 209 P; test: as above; settings: Gram +, 10^6 cells/ml
Procedure: as §1

[24] = test system: Fusobacterium necrophorum S-45; test: In vitro antibacterial activity (anaerobic bacteria), MIC; settings: S45

Compound	MIC [1] [µg/mL]	MIC [2] [µg/mL]	MIC [3] [µg/mL]	MIC (B. fragilis 0558) [µg/mL]	MIC (P. maltophilia GIFU 2491) [µg/mL]	MIC (P. aeruginosa IFO 12689) [µg/mL]	MIC [6] [µg/mL]	MIC [7] [µg/mL]	MIC [8] [µg/mL]	MIC (B. fragilis 25285) [µg/mL]	MIC [9] [µg/mL]	MIC [10] [µg/mL]	MIC (C. perfringens KYA 13123) [µg/mL]	MIC (P. aeruginosa IID 1210) [µg/mL]	MIC [12] [µg/mL]	MIC [13] [µg/mL]	MIC [14] [µg/mL]	MIC [16] [µg/mL]	MIC (F. varium KYA 8501) [µg/mL]	MIC (K. pneumoniae 1-220S) [µg/mL]	also measured
Cc1c(N2C[C@@H](C)[C@H](N)C2)c(F)cc2c(=O)c(C(=O)O)cn(C3CC3)c12 (relative stereo) [Ex. 27, 7-(3,4-trans-3-Amino-4-methyl-1-pyrrolidinyl)-1-cyclopropyl-6-fluoro-1,4-dihydro-8-methyl-4-oxo-3-quinolinecarboxylic acid]	0.025 (≈ 0.0696 µM)	0.025 (≈ 0.0696 µM)	0.0125 (≈ 0.0348 µM)	0.05 (≈ 0.139 µM)	0.05 (≈ 0.139 µM)	0.39 (≈ 1.09 µM)	0.1 (≈ 0.278 µM)	0.05 (≈ 0.139 µM)	0.39 (≈ 1.09 µM)	0.05 (≈ 0.139 µM)	0.1 (≈ 0.278 µM)	0.1 (≈ 0.278 µM)	0.1 (≈ 0.278 µM)	0.39 (≈ 1.09 µM)	0.025 (≈ 0.0696 µM)	0.025 (≈ 0.0696 µM)	0.2 (≈ 0.556 µM)	0.0125 (≈ 0.0348 µM)	0.78 (≈ 2.17 µM)	0.025 (≈ 0.0696 µM)	MIC [4]: 0.0063 µg/mL (≈ 0.0175 µM); MIC ([5]; IID976, aerobic, Gram -, 10^6 cells/ml): 0.0063 µg/mL (≈ 0.0175 µM); MIC (Pst micros UPI 5464-1): 0.05 µg/mL (≈ 0.139 µM); MIC [11]: 0.78 µg/mL (≈ 2.17 µM); MIC (P. cepacia GIFU 518): 0.2 µg/mL (≈ 0.556 µM); MIC (C. ramosum): 0.39 µg/mL (≈ 1.09 µM); MIC (B. distasonis 8503): 0.39 µg/mL (≈ 1.09 µM); MIC [15]: 0.2 µg/mL (≈ 0.556 µM); MIC (Shigella sonnei IID 969): 0.0063 µg/mL (≈ 0.0175 µM); MIC [17]: 0.0063 µg/mL (≈ 0.0175 µM); MIC [18]: 0.025 µg/mL (≈ 0.0696 µM); MIC (E. coli ATCC 10536): 0.0063 µg/mL (≈ 0.0175 µM); MIC (P. mirabilis IID 994): 0.025 µg/mL (≈ 0.0696 µM); MIC [19]: 0.05 µg/mL (≈ 0.139 µM); MIC [20]: 0.025 µg/mL (≈ 0.0696 µM); MIC [21]: 0.05 µg/mL (≈ 0.139 µM); MIC [22]: 0.2 µg/mL (≈ 0.556 µM); MIC (S. epidermidis IID 866): 0.05 µg/mL (≈ 0.139 µM); MIC [23]: 0.025 µg/mL (≈ 0.0696 µM)
Cc1c(N2CCNCC2)c(F)cc2c(=O)c(C(=O)O)cn(C3CC3)c12 [Exp. 19, 1-Cyclopropyl-6-fluoro-1,4-dihydro-8-methyl-4-oxo-7-(1-piperazinyl)-3-quinolinecarboxylic acid]	0.05 (≈ 0.145 µM)	0.05 (≈ 0.145 µM)	0.05 (≈ 0.145 µM)	0.39 (≈ 1.13 µM)	0.39 (≈ 1.13 µM)	0.78 (≈ 2.26 µM)	0.39 (≈ 1.13 µM)	0.2 (≈ 0.579 µM)	3.13 (≈ 9.06 µM)	0.78 (≈ 2.26 µM)	0.39 (≈ 1.13 µM)	0.78 (≈ 2.26 µM)	0.2 (≈ 0.579 µM)	0.78 (≈ 2.26 µM)	0.05 (≈ 0.145 µM)	0.39 (≈ 1.13 µM)	0.78 (≈ 2.26 µM)	0.05 (≈ 0.145 µM)	3.13 (≈ 9.06 µM)	0.05 (≈ 0.145 µM)	MIC ([4]; read-out: MIC): 0.125 µg/mL (≈ 0.362 µM); MIC ([5]; IID976): 0.05 µg/mL (≈ 0.145 µM); MIC (Pst micros UPI 5464-1; anaerobic, Gram +, 10^6 cells/ml): 0.39 µg/mL (≈ 1.13 µM); MIC ([11]; anaerobic, Gram +, 10^6 cells/ml, read-out: MIC): 6.25 µg/mL (≈ 18.1 µM); MIC (P. cepacia GIFU 518; aerobic, Gram -, 10^6 cells/ml): 0.78 µg/mL (≈ 2.26 µM); MIC (C. ramosum; read-out: MIC): 6.25 µg/mL (≈ 18.1 µM); MIC [24]: 0.39 µg/mL (≈ 1.13 µM); MIC (B. distasonis 8503; read-out: MIC): 1.56 µg/mL (≈ 4.52 µM); MIC ([15]; anaerobic, Gram -, 10^6 cells/ml, read-out: MIC): 6.25 µg/mL (≈ 18.1 µM); MIC (Shigella sonnei IID 969): 0.025 µg/mL (≈ 0.0724 µM); MIC [17]: 0.025 µg/mL (≈ 0.0724 µM); MIC [18]: 0.2 µg/mL (≈ 0.579 µM); MIC (E. coli ATCC 10536): 0.05 µg/mL (≈ 0.145 µM); MIC (P. mirabilis IID 994): 0.025 µg/mL (≈ 0.0724 µM); MIC [19]: 0.1 µg/mL (≈ 0.29 µM); MIC [20]: 0.2 µg/mL (≈ 0.579 µM); MIC [21]: 0.05 µg/mL (≈ 0.145 µM); MIC [22]: 0.1 µg/mL (≈ 0.29 µM); MIC (S. epidermidis IID 866): 0.2 µg/mL (≈ 0.579 µM); MIC [23]: 0.2 µg/mL (≈ 0.579 µM)
